Experimental data from US20130323283A1, “COMPOSITIONS AND METHODS FOR TREATING FOXP3+ TREG RELATED DISEASES” (THE CHILDREN'S HOSPITAL OF PHILADELPHIA, priority 2010, published 2013).

How the values were obtained:
Tregs = test: in vitro murine Treg suppression assay (CFSE-labeled Teff proliferation); assay type: cell-based; conditions: for % proliferating cells: 5 μM, 72 hours
Protocol: Med. (2007) 13:1299-307, the contents of which are incorporated by their entireties. In these assays, effector T cells (Teffs) were labeled with carboxyfluorescein diacetate succinimidyl ester (CFSE), and stimulated by CD3 mAb plus irradiated antigen presenting cells (APCs). […] The percentage of proliferating CFSE-labeled Teffs in each mixture was assessed by flow cytometry after 72 hours as shown in Table 1.

Treg and Teff cells [1] = test: Treg and Teff gene expression in vitro by qPCR; assay type: cell-based; conditions: 5 μM, 24 hours, CD3/CD28 mAbs plus IL-2
Protocol: Gene expression Foxp3, CTLA-4, GITR and TGF-β in the activated Treg and Teff cells was determined by qPCR (mean±SD, n=3/grp) and normalized to 18S.

Teffs and Tregs = test: CD4+ Foxp3+ proportion and MFI in Teffs and Tregs by flow cytometry; assay type: cell-based; conditions: 6 hours
Protocol: Teffs and Tregs were isolated, and treated with 5, 10, or 20 μM p300i or DMSO for 6 hours. Flow cytometry was used to determine the CD4+ Foxp3+ proportion in Teffs or Tregs (Table 2) and the mean fluorescent intensity (MFI) of CD4+ Foxp3+ cells in Teffs or Tregs (Table 3) before or after being treated with p300i or DMSO.

B6 mice = test: T cell proportions in lymph nodes and spleen of treated mice; assay type: in vivo; conditions: for CD4 proportion / CD8 proportion / CD62L CD44 proportion / Foxp3+ CD4 proportion: 0.9 mg/kg/day via Alzet pump for 7 days
Protocol: (§1) Treg and Teff cells were purified using magnetic beads from DMSO- or p300i-treated mice.
The proportions of CD4, CD8, Foxp3+ CD4, or CD62L CD44 (markers of memory vs. naive T cells) cells in lymph nodes (LN) and spleen (SP) of DMSO- and C646-treated mice were determined as shown in Table 4.

Treg and Teff cells [2] = test: gene expression by Treg and Teff cells from treated mice (qPCR); assay type: in vivo; conditions: cells from mice given 0.9 mg/kg/day for 7 days
Protocol: as §1
Gene expression by Treg and Teff cells from DSMO- or C646-treated mice (four mice/group) was analyzed by qPCR.

Tregs and Teff cells = test: Treg suppression assays with cells purified from treated mice; assay type: in vivo; conditions: Treg:Teff 2:1 to 0:1
Text: as §1

[3] = test system: CFSE-labeled CD4 and CD8 cells; test: first parent-to-F1 assay (C57BL/6->DBA/B6), alloantigen-induced T cell proliferation in vivo; parameters: species or system mice; conditions: 0.8 mg/kg/d continuous via Alzet pump; 3 day assay
Text: In the first parent-to-F1 assay (C57BL/6->DBA/B6) (Tao et al., J. Immunol. (2005) 175:5774-82; Tao et al., J. Immunol. (2008) 180:6649-55; the contents of both of which are incorporated herein in their entireties), activation and proliferation of adoptively transferred CFSE-labeled CD4 and CD8 cells was monitored by flow cytometry in a 3 day assay. […] The percentages of CFSE-labeled CD4 proliferating or dividing cells from DSMO- and C646-treated mice were 65% and 73%, respectively. The percentages of CFSE-labeled CD8 proliferating or dividing cells from DSMO- and C646-treated mice were 93% and 95%, respectively.

CFSE-labeled T cells = test: second parent-to-F1 assay (B6 T cells into B6D2F1 mice); assay type: in vivo; conditions: 0.9 mg/kg/d for 3 days by Alzet pumps
Text: The percentages of CFSE-labeled CD4 proliferating cells from DSMO- and C646-treated mice were 94.5% and 95.0%, respectively. The percentages of CFSE-labeled CD8 proliferating or dividing cells from DSMO- and C646-treated mice were 78.5% and 81.6%, respectively. Donor CD4 and CD8 cells (H-2d negative) from both groups had similar alloantigen-induced activation and proliferation (p>0.05).

cardiac allografts = test: cardiac allograft model (BALB/c hearts into B6 RAG-/- recipients with adoptive transfer); assay type: in vivo, mice
Text: The effects of several HAT inhibitors (HATi) in a cardiac allograph model were studied in three experiments. This model involved vascularized cardiac allografts from BALB/c donors transplanted into immunodeficient C57BL/6 RAG−/− (B6 RAG−/−) recipients. The recipients were adoptively transferred with 1×10^6 purified C57BL/6 Teff cells (CD4+CD25−) alone or in combination with 0.5×10^6 purified Treg cells (CD4+CD25+). The cardiac allograft survival rates of the allograft recipients were monitored over a period of 120 days post-transplant.
In the first experiment, the allograft recipients were adoptively transferred with 1×10^6 Teff cells and 0.5×10^6 purified Tregs (CD4+CD25+), and treated with DMSO (control) or a HAT inhibitor via Alzet pump. Four HAT inhibitors were tested. […] One was a PCAF/GCN5 inhibitor, Lys-20-CoA-Tat. […] Rejection was defined as cessation of heartbeat.
The p300i was delivered to the allograft recipients at 0.9 mg/kg/d for 14 d using Alzet pumps.
In the third experiment, B6/RAG−/− mice (n=4/grp) were engrafted with fully MHC-mismatched BALB/c cardiac grafts and adoptively transferred with WT B6 Teff cells (1×10^6) alone or plus Tregs (0.5×10^6). […] Use of p300−/− Tregs was also unable to suppress Teff cells and prolong allograft survival in this adoptive transfer model.

TC1 lung cancer cells [4] = test: TC1 lung cancer tumor growth in WT B6 mice; assay type: in vivo
Protocol: In the second experiment, p300 inhibition was achieved by using a p300 inhibitor. TC1 lung cancer cells were injected in the flanks of WT B6 mice. […] Tumor volume was monitored in the mice on days 6, 10, 12, 15 and 19 post-tumor injection (FIG. 5B). […] DMSO- and C646-treated mice having tumors were obtained as described in Example 9. […] The growth of tumors in the mice was monitored by tumor volume and tumor weight (FIG. 6B).

TC1 lung cancer cells [5] = test: TC1 lung cancer tumor growth in immunodeficient RAG-/- mice; assay type: in vivo
Protocol: TC1 lung cancer cells were injected in the flanks of RAG−/− mice. […] Tumors were harvested from the mice 17 days post-tumor injection. Tumor volume was monitored on days 0, 5, 10, 13 and 17 post-tumor injection. […] Tumors were exposed to C646 in RAG−/− mice. […] No effects on acetylation of certain p300-independent targets in the tumor extracts was observed (e.g. acetylation of alpha-tubulin was unimpaired).

[6] = compared with DMSO-treated mice, p<0.005
[7] = qPCR, tumors from treated mice vs DMSO

graft function (isografts) (cardiac allografts; second experiment: WT B6 mice with normal B6 hearts): does not directly affect graft function
SMILES: CC1=NN(c2ccc(C(=O)O)cc2)C(=O)/C1=C\c1ccc(-c2cc(C)c(C)cc2[N+](=O)[O-])o1 [C646]
suppressive actions of Tregs (Tregs; HATi 5 μM): largely abrogated the suppressive actions of Tregs
% proliferating cells (Tregs; Treg:Teff 0:1): 88%
% proliferating cells (Tregs; Treg:Teff 1:1): 66%
% proliferating cells (Tregs; Treg:Teff 1:2): 70%
% proliferating cells (Tregs; Treg:Teff 1:4): 78%
% proliferating cells (Tregs; Treg:Teff 1:8): 85%
Treg expression of GITR gene (Treg and Teff cells [1]): downregulated
Treg expression of CTLA-4 gene (Treg and Teff cells [1]; statistical significance): downregulated
Treg expression of Foxp3 gene (Treg and Teff cells [1]; statistical significance): downregulated
Treg expression of TGF-β gene (Treg and Teff cells [1]; statistical significance): downregulated
mean fluorescent intensity (MFI) of CD4+ Foxp3+ cells (Teffs and Tregs; Teff, 5 μM): 121
mean fluorescent intensity (MFI) of CD4+ Foxp3+ cells (Teffs and Tregs; Teff, 10 μM): 108
mean fluorescent intensity (MFI) of CD4+ Foxp3+ cells (Teffs and Tregs; Teff, 20 μM): 91
CD4+ Foxp3+ proportion (Teffs and Tregs; Teffs, 5 μM): 2
CD4+ Foxp3+ proportion (Teffs and Tregs; Teffs, 10 μM): 2
CD4+ Foxp3+ proportion (Teffs and Tregs; Teffs, 20 μM): 1
mean fluorescent intensity (MFI) of CD4+ Foxp3+ cells (Teffs and Tregs; Treg, 5 μM): 280
mean fluorescent intensity (MFI) of CD4+ Foxp3+ cells (Teffs and Tregs; Treg, 10 μM): 253
mean fluorescent intensity (MFI) of CD4+ Foxp3+ cells (Teffs and Tregs; Treg, 20 μM): 138
CD4+ Foxp3+ proportion (Teffs and Tregs; Tregs, 5 μM): 71
CD4+ Foxp3+ proportion (Teffs and Tregs; Tregs, 10 μM): 68
CD4+ Foxp3+ proportion (Teffs and Tregs; Tregs, 20 μM): 49
effect on the proportions of the tested cells (CD4, CD8, Foxp3+ CD4, CD62L CD44) (B6 mice; LN and SP, compared to DMSO-treated mice, 0.9 mg/kg/day, 7 days): negligible effect
CD4 proportion (B6 mice; LN): 35
CD8 proportion (B6 mice; LN): 34
CD62L CD44 proportion (B6 mice; LN): 6
Foxp3+ CD4 proportion (B6 mice; LN): 8
CD4 proportion (B6 mice; SP): 18
CD8 proportion (B6 mice; SP): 12
CD62L CD44 proportion (B6 mice; SP): 12
Foxp3+ CD4 proportion (B6 mice; SP): 13
expression of CTLA4 by Treg cells (Treg and Teff cells [2]; p<0.01): significantly decreased
expression of GITR by Treg cells (Treg and Teff cells [2]; p<0.01): significantly decreased
expression of IL-10 by Treg cells (Treg and Teff cells [2]; p<0.01): significantly decreased
expression of TGF-β by Treg cells (Treg and Teff cells [2]; p<0.01): significantly decreased
expression of CTLA4, GITR, IL-10 and TGF-β by Teff cells (Treg and Teff cells [2]; p>0.05): unchanged
ability of Tregs to suppress proliferation of Teff cells from untreated mice (Tregs and Teff cells; Tregs from C646-treated mice, p<0.05): decreased
response of Teff cells from treated mice to suppression by control normal Tregs (Tregs and Teff cells; Tregs from untreated mice): responded normally
alloantigen-induced T cell activation or proliferation (CFSE dilution) or production of cytokines such as IL-2 and IFN-γ [3]: did not impair
percentage of CFSE-labeled CD4 proliferating or dividing cells [3]: 73%
percentage of CFSE-labeled CD8 proliferating or dividing cells [3]: 95%
percentage of CFSE-labeled CD4 proliferating cells (CFSE-labeled T cells): 95.0%
percentage of CFSE-labeled CD8 proliferating or dividing cells (CFSE-labeled T cells): 81.6%
cardiac allograft rejection (cessation of heartbeat) (cardiac allografts; first experiment: 1×10^6 Teff plus 0.5×10^6 Tregs, HAT inhibitor via Alzet pump, DMSO gave long-term survival): restored rejection
Teff cell responses in vivo (allograft rejection) (cardiac allografts; second experiment: Teff cells alone plus p300i 0.9 mg/kg/d for 14 d, Alzet pumps): does not suppress Teff cell responses in vivo
T cell-dependent graft rejection (cardiac allografts; third experiment: Teff plus Tregs, Alzet pumps for 14 days): restored T cell-dependent graft rejection
tumor growth (tumor volume) (TC1 lung cancer cells [4]; 0.9 mg/kg/day for about 14 days via Alzet pumps from day 6, days 6-19): suppressed tumor growth
tumor growth by volume (TC1 lung cancer cells [4]; [6]): significantly reduced
tumor growth by weight (TC1 lung cancer cells [4]; [6]): significantly reduced
intratumoral CD4 mRNA (TC1 lung cancer cells [4]; [7]): significantly increased
intratumoral CD8 mRNA (TC1 lung cancer cells [4]; [7]): comparable
intratumoral Foxp3 mRNA (TC1 lung cancer cells [4]; [7]): significantly reduced
intratumoral granzyme B mRNA (TC1 lung cancer cells [4]; [7]): significantly increased
IFN-γ production by purified CD8 (ELISPOT) (TC1 lung cancer cells [4]; tumor-bearing treated mice): increased
tumor growth (tumor volume) (TC1 lung cancer cells [5]; Alzet pumps from day 5, up to day 17): did not impair tumor growth
acetylation of histone 3 in tumor extracts (TC1 lung cancer cells [5]; compared to DMSO-treated mice): Decreased acetylation of histone 3
acetylation of alpha-tubulin in tumor extracts (TC1 lung cancer cells [5]; p300-independent target): unimpaired
